Assays:
[1] = system: UWB1.289 (BRCA1-mutant ovarian cancer cell line); assay: Colony formation (sensitivity) assay in UWB1.289; assay type: cell-based; conditions: BRCA1-mutant UWB1.289, compared to UWB1.289+BRCA1
Description: (§1) Cells were transfected with siRNA or plasmid 18-24 h before being plated for colony formation assays. Cells were counted and plated in triplicates in 6-well plates. For treatment with ML323, plated cells were allowed to adhere overnight before treatment with ML323 the next day. At the end of the experiment, cells were fixed with methanol for 10 min at −20° C. then stained with crystal violet. Quantification of cell growth area was performed with ImageJ.

[2] = system: BRCA1 deficient MDA-MB-436 cells; assay: Replication combing (fiber) assay in MDA-MB-436 after hydroxyurea; assay type: cell-based; conditions: 10 μM ML323 for 24 h; effect not increased with USP1 silencing
Description: FIG. 20B. Schematic of the experimental design for the fiber assay, graphical quantification of fiber assay measuring replication fork stability in MDA-MB-436 cells following treatment with either siCtrl or siUSP1, untreated or treated with 10 μM of ML323 for 24 h.
Replication combing assay was performed using the FiberComb machine (Genomic Vision, Bagneux, France). Br iefly, cells were treated with CldU, IdU then HU, with 3 PBS washes between each treatment. Cells were then trypsinized, counted and embedded in low melting point agarose plugs, then treated with proteinase k overnight. Agarose plugs were then washed and digested with agarase. Agarase-treated samples were then poured into FiberComb wells and combed onto silanized coverslips. Coverslips were probed with rat anti-BrdU antibody (clone BU1/75 (ICR1) specific to CldU, Life Technologies, Woburn, MA, #MA1-82088) and mouse anti-BrdU Antibody (specific to IdU, BD Biosciences, Woburn, MA, #347580) and visualized by fluorescence microscopy. Pictures were taken of at least 100 fibers per condition. Fibers were measured with ImageJ and graphed.

[3] = target: T1, wild-type, full-length USP1 (Homo sapiens, UniProt O94782); assay: Ub-CHOP2 deubiquitination assay, WT-USP1; assay type: biochemical
T1 construct: purchased Boston Biochem / R&D systems E564
T1 sequence (O94782 1-785): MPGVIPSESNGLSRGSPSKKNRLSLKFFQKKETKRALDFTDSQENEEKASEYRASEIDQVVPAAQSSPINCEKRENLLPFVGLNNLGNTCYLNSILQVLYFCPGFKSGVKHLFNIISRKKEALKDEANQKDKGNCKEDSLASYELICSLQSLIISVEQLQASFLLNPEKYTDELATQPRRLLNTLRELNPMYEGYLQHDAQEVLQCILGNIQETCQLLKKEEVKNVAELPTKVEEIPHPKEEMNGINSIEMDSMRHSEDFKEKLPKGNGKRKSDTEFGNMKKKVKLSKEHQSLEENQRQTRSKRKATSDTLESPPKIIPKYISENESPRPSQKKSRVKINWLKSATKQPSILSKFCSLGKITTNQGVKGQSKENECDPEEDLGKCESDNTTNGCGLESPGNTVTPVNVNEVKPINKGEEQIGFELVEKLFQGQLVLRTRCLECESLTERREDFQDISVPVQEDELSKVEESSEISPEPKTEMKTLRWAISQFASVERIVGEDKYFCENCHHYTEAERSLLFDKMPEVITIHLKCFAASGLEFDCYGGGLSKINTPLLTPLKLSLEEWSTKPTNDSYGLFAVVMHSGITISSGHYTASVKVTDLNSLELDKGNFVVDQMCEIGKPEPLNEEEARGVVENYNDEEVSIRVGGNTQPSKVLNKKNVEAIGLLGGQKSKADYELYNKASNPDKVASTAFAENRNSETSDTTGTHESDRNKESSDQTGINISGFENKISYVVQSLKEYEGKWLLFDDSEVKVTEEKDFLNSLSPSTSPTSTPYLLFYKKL
Description: (§2) FIG. 11B. Ub-CHOP2 assay of WT-USP1 and Trunc-USP1 with and without USP1 inhibitor ML323.
(§3) Preparation of recombinant USP1 and UAF1 wild type and mutant proteins in SF9 cells and Ub-AMC assays were performed by the method as described in Cohn M A, Kowal P, et al. A UAF1-containing multisubunit protein complex regulates the Fanconi anemia pathway. Molecular cell. 2007; 28(5):786-97. Ub-CHOP2 assays (Life Sensors, Malvern, PA, PR1101) were performed according to manufacturer's instructions. Ub-AMC assays were performed by the methods as described in Cohn M A et al., UAF1 is a subunit of multiple deubiquitinating enzyme complexes. The Journal of biological chemistry. 2009; 284(8):5343-51; Cohn M A, et al. A UAF1-containing multisubunit protein complex regulates the Fanconi anemia pathway. Molecular cell. 2007; 28(5):786-97; Kee Y, et al., WDR20 regulates activity of the USP12 UAF1 deubiquitinating enzyme complex. Journal of Biological Chemistry. 2010; 285(15):11252-7; and Mistry H, Hsieh G, et al. Small-molecule inhibitors of USP1 target ID1 degradation in leukemic cells. Molecular cancer therapeutics. 2013; 12(12):2651-62.

[4] = system: USP1-Trunc; assay: Ub-CHOP2 deubiquitination assay, Trunc-USP1; assay type: biochemical
Description: as §2, §3

[5] = target: T2, full-length USP1 / forked DNA (Homo sapiens, UniProt O94782); assay: Electromobility shift assay of USP1 with forked DNA; assay type: binding; conditions: 0-300 nM USP1, 0-1000 nM ML323, forked DNA
T2 construct: purchased Boston Biochem / R&D systems E564
T2 sequence (O94782 1-785): T1 sequence (O94782 1-785)
Description: FIG. 11C. Electromobility shift assay of 0-300 nM of USP1 incubated with 0-1000 nM of ML323 and forked DNA.
Recombinant USP1 and UAF1 proteins from R&D systems (E564, E566) were used for some electromobility shift assays and in vitro deubiquitination assays. Electromobility shift assays were performed by pre-incubating fluorophore (Cy3)-tagged DNA and purified protein in binding buffer (20 mM Hepes (pH 7.6), 0.1M KCl, 5 mM MgCl2, 3% (v/v) glycerol, 0.25 mg/ml BSA, 0.05 mM EDTA, 0.5 mM DTT, 0.01% (v/v) NP-40) for 30 min on ice. Samples were then loaded onto 6% polyacrylamide gels and ran at 65V in 0.5× TBE for 135 min at 4° C. Gels were visualized using the LAS-4000 imaging system (GE Healthcare Life Sciences, Pittsburgh, PA). DNA used for Ub-AMC, Ub-CHOP2 and electromobility shift assay were 40 bp in length and were designed to have minimal potential of secondary structure formation.

[6] = system: PARP inhibitor resistant UWB1.289 SYR14 cells; assay: Clonogenic assay in PARP inhibitor resistant UWB1.289 SYR14; assay type: cell-based
Description: FIG. 23A. Quantification of colonies after clonogenic assay of parental BRCA1-deficient UWB1.289 cells and PARP inhibitor resistant UWB1.289 SYR14 cells treated with USP1 inhibitor ML323.
as §1

[7] = system: PARP inhibitor resistant BRCA1-deficient cells (53BP1 silencing); assay: Sensitivity of PARP inhibitor resistant cells with restored HR (53BP1 silencing); assay type: cell-based
[8] = target: T3, USP1 (Homo sapiens, UniProt O94782); assay: Western blot of USP1 with and without ML323; assay type: cell-based
T3 construct: endogenous in cells
T3 sequence (Q8TAF3 whole entry partner, one chain of several): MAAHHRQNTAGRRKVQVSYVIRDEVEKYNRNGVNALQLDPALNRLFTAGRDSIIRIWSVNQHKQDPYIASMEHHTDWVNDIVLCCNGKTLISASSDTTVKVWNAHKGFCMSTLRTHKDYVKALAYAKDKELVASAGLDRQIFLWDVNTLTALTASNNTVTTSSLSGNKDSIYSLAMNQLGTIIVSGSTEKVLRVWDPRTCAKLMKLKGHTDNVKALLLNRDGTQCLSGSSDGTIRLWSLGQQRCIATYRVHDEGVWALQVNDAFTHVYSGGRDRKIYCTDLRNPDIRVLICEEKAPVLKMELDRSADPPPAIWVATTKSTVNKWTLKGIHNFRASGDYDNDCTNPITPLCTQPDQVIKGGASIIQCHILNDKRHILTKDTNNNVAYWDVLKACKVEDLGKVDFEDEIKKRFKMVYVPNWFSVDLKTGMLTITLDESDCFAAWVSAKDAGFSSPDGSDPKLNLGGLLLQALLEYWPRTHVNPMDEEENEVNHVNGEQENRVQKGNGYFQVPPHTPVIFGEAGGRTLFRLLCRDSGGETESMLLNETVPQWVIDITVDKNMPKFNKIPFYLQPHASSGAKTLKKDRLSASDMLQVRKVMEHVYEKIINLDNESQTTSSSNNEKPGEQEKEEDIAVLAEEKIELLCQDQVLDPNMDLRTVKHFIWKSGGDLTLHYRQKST
Description: FIG. 8F. Western blot of USP1 with and without ML323 treatment. Following inhibition of USP1 deubiquitinating enzyme (DUB) activity, USP1 autocleavage is inhibited, resulting in a more intense top USP1 band. In addition, Ser313 phosphorylation is induced, resulting in a higher MW band in the blot.
Cells were lysed with lysis buffer (300 mM NaCl, 50 mM Tris-Cl, 1 mM EDTA, 0.5% NP-40), lysates resolved on denaturing Nupage (Invitrogen, Carlsbad, CA) polyacrylamide gels and transferred onto nitrocellulose membranes. Membranes were blocked with 5% milk in TBST, and probed with primary and secondary antibodies respectively, then detected with chemiluminescence (Western Lightning, Perkin Elmer, Waltham, MA).

[9] = system: BRCA1-deficient UWB1.289 cells; assay: Colony assay, ML323 combined with Olaparib in UWB1.289; assay type: cell-based; conditions: 0 nM or 25 nM Olaparib and increasing doses of ML323
Description: FIG. 14. USP1 inhibition is non-epistatic with PARP inhibitors in BRCA1 deficient cells (Top: BRCA1-deficient UWB1.289 cells treated with 0 nM or 25 nM of Olaparib and increasing doses of USP1 inhibitor ML323. Bottom: Representative pictures of UWB1.289 colonies).
as §1

[10] = system: FANCD2-Ub; conditions: cited from earlier work

SMILES: Cc1cnc(-c2ccccc2C(C)C)nc1NCc1ccc(-n2ccnn2)cc1 [ML323]
- growth of UWB1.289 cells [1]: reduced growth
- fork degradation following hydroxyurea treatment [2]: enhanced fork degradation
- DUB activity of wild-type, full-length USP1 [3]: inhibits
- DUB activity of USP1-Trunc [4]: inhibits
- DNA binding activity of full-length USP1 [5]: does not interfere
- sensitivity of PARP inhibitor resistant cells resulting from fork stabilization [6]: remained sensitive
- sensitivity of PARP inhibitor resistant cells resulting from restoration of HR [7]: resistant
- USP1 Ser313 phosphorylation [8]: induced
- USP1 autocleavage [8]: inhibited
- interaction of USP1 inhibition with PARP inhibitors in BRCA1 deficient cells [9]: non-epistatic
- FANCD2 deubiquitination [10]: blocks
- cellular FANCD2-Ub level [10]: accumulation
